{"source": "patent US20240358719A1", "about": "“Formulations for Prolonging Gestation and for Complications of Menstruation or Gestation” (The Board of Trustees of the Leland Stanford Junior …, priority 2021, published 2024)", "key": {"[1]": {"tested_on": "uterine muscle strips from pregnant WT mice stimulated with oxytocin", "assay": "myography of mouse uterine muscle strips, oxytocin dose response", "conditions": "D18 strips", "protocol": "(§1) Uterine muscle strips were extracted from pregnant mice and were assessed for contractibility via myography. Timed-pregnant wild-type C57/B6 mice were euthanized before making a vertical midline abdominal incision and removing each of the two uterine horns. Uterine horns were subsequently cut into 3-mm×7-mm segments and placed in a modified Krebs buffer (118 mM NaCl, […], 1.2 mM MgSO4, 1.2 mM KH2PO4, 2.5 mM CaCl2), 25 mM NaHCO3, and 11 mM glucose, pH 7.4). Muscle segments were vertically suspended on custom-made stainless steel hooks inside an organ bath filled with modified Krebs buffer, maintained at 37° C., and aerated with gas containing 95% O2 and 5% CO2. The strips were allowed to equilibrate at 1.5 g of tension for 45 min.\nFor the oxytocin dose-response experiments, the strips were then stimulated with oxytocin at concentrations ranging from 1 to 1000 nM, and the pattern of contraction in response to each dose was recorded for 9 min. The muscle strips were washed with Krebs solution twice and allowed to equilibrate for 3 min before the next stimulation. In separate experiments, strips were treated with the compounds before assessing the dose response to oxytocin. Contraction tracings were recorded using PowerLab and LabChart (ADInstruments).\nProvided in FIGS. 5B and 5C are results of a myography experiment measuring spontaneous contractions induced by oxytocin. […]"}, "[2]": {"tested_on": "pregnant C57BL/6 mice", "assay": "gestation period in healthy control mice (no LPS)", "format": "in vivo", "conditions": "1.5 mg/mouse intraperitoneal every 24 hours", "protocol": "(§2) Provided in FIGS. 8A and 8B are an experimental schematic and results of tocolytic compound treatment in mouse models of severe preterm birth. In separate experiments, pregnant C57BL/6 mice were intraperitoneally administered 3 mg/kg LPS (Escherichia coli 0127: B8, chromatographically pure, Sigma-Aldrich) or PBS (as control) on D15. Treated mice were then treated with either intraperitoneal injections of vehicle or androstane-3,17-diol (1.5 mg/mouse). The androstane-3,17-diol group received androstane-3,17-diol via intraperitoneal injections every 24 hours, up to 3 days before delivery. One-third (33%) of LPS-induced preterm mice treated with androstane-3,17-diol reached full term."}, "[3]": {"tested_on": "pregnant C57BL/6 mice", "assay": "mouse model of moderate preterm birth (LPS 2 mg/kg)", "format": "in vivo", "conditions": "LPS 2 mg/kg D15; for gestation after LPS: intraperitoneal every 8 hours, DHEA-S, THDOC 0.8 then 0.4 mg/mouse, androstane-3,17-diol 1.5 mg/mouse, combinations 0.75 mg/mouse each", "protocol": "Provided in FIGS. 6A and 6B are an experimental schematic and results of compound treatment in mouse models of moderate preterm birth. Pregnant C57BL/6 mice were intraperitoneally administered 2 mg/kg LPS (Escherichia coli 0127:B8, chromatographically pure, Sigma-Aldrich) or PBS (as control) on D15. Mice were then treated with either intraperitoneal injections of vehicle (100 μl, 30% DMSO in pharmaceutical sesame oil), DHEA-S (first two doses at 0.8 mg/mouse, later doses at 0.4 mg/mouse, 100 μl), THDOC (first two doses at 0.8 mg/mouse, later doses at 0.4 mg/mouse, 100 μl), estriol-16-glucuronide (first two doses at 0.8 mg/mouse, later doses at 0.4 mg/mouse, 100 μl), androstane-3,17-diol (1.5 mg/mouse, 100 μl), Androstane-3,17-diol+progesterone (each at 0.75 mg/mouse, 100 μl), or DHEA-S+androstane-3,17-diol+progesterone (androstane-3,17-diol and progesterone each at 0.75 mg/mouse, DHEA-S at 0.27 mg/mouse for the first two doses and then 0.13 mg/mouse for the later does, 100 μl). Compound groups received the compounds via intraperitoneal injections every 8 hours, beginning 8 hours after LPS administration, up to 4 doses, and then after 12 hours before delivery."}, "[4]": {"tested_on": "pregnant C57BL/6 mice", "assay": "mouse model of severe preterm birth (LPS 3 mg/kg)", "format": "in vivo", "protocol": "Provided in FIG. 7 is an experimental schematic of compound treatment in mouse models of severe preterm birth. In separate experiments, pregnant C57BL/6 mice were intraperitoneally administered 3 mg/kg LPS (Escherichia coli 0127: B8, chromatographically pure, Sigma-Aldrich) or PBS (as control) on D15. Treated mice were then treated with either intraperitoneal injections of vehicle (200 μl) or androstane-3,17-diol (1.5 mg/mouse, 200 μl) every 12 hours, up to 5 doses before delivery.\nas §2"}, "[5]": {"tested_on": "human uterine smooth muscle cells", "assay": "collagen gel contraction assay with human uterine smooth muscle cells", "format": "cell-based", "conditions": "compound at 10 μM; oxytocin 100 nM, 18 hours", "protocol": "The abilities of various hormonal steroids to inhibit human uterine smooth muscle cell contraction were assessed utilizing a collagen gel contraction assay. Collagen (150 μl) was aliquoted per well of a 48-well plate. After 1 hour of polymerization, 80,000 human uterine smooth muscle cells (SMCs), were added to each well in 300 μl of SmBM smooth muscle basic medium (Lonza) with vehicle (DMSO) or compounds (2.5 µM of DHEA-S, 10 µM of THDOC, 10 µM of estriol-16-glucuronide, 10 µM of androstane-3,17-diol, or 2 mM of progesterone). Collagen gels were exposed to oxytocin (100 nM) to stimulate uterine SMC contraction or PBS as control. After incubating for 1 hour at 37° C. and 5% CO2, the sides of the collagen gels were detached from the wells with sterile 200-μl pipette tips. After 18 hours, cells in collagen-coated wells were fixed with 4% paraformaldehyde solution for 30 min, then rinsed, and stored in PBS. Experiments were done multiple times (n=7), with duplicates for each condition. Surface area of each gel circle was measured using ImageJ. The areas were then expressed as a percentage relative to the area of no cell (collagen alone) control (set at 100%).\nEach of the compounds assessed provided some ability to mitigate collagen retraction. […]"}, "[6]": {"tested_on": "uterine muscle strips from pregnant WT mice", "assay": "myography of mouse uterine muscle strips, spontaneous contraction", "protocol": "as §1\nProvided in FIG. 5A are results of a myography experiment measuring spontaneous contraction. Myography of uterine muscle strips from pregnant WT mice at D18 was performed while incubating the strips with oxytocin (OXY), Vehicle, 0.25 μM μM of DHEA-S, 1 μM of THDOC, 1 μM of estriol-16-glucuronide, or 1 μM of androstane-3,17-diol. The area under the curve was calculated for the final 180 s of each 9-min contraction tracing using GraphPad Prism (GraphPad Prism for Macintosh version 5.0; GraphPad Software). The area under the curve for each response was then normalized to the area under the curve of the baseline.\nProvided in FIG. 5E are myography tracings recorded with various compound applications: 10 μM progesterone, 1 μM Androstane-3,17-diol, 0.5 μM Androstane-3,17-diol+5 μM progesterone, and 0.33 μM Androstane-3,17-diol+0.33 μM THDOC+3.3 μM progesterone. Left of the arrow is baseline contraction and to the right of the arrow indicates when the compounds were applied. […] Note that there was no obvious effect when treating the muscle with 1 μM progesterone (data not shown)."}, "[7]": {"tested_on": "pregnant CD1 mice", "assay": "mouse model of preterm birth (CD1, LPS 1 mg/kg)", "format": "in vivo", "conditions": "LPS 1 mg/kg D15, subcutaneous; for pups birthed from treated preterm model females: 4 doses; for gestation after LPS: 4 doses at 30 mg/kg (5α-DHT 3 mg/kg)", "protocol": "Provided in FIGS. 9 and 9B are an experimental schematic and results of compound treatment in mouse models of preterm birth. Pregnant CD1 mice were intraperitoneally administered 1 mg/kg LPS (Escherichia coli 0127: B8, chromatographically pure, Sigma-Aldrich) or PBS (as control) on D15. Mice were then treated with either subcutaneous injections of vehicle (DMSO in pharmaceutical sesame oil), pregnenolone (Preg) (4 doses at 30 mg/kg), pregnenolone sulfate (PregS) (4 doses at 30 mg/kg), 7-methylguanine (4 doses at 30 mg/kg), or 5α-dihydrotestosterone (5α-DHT) (4 doses at 3 mg/kg). Compound groups received the compounds beginning 6 hours after LPS administration, then 6, 12, and 12 hours apart."}}, "note": "Entries after “also recorded” stand apart in the source; their conditions may differ. Structures can show the parent of a compound that is named as a salt."}
{"smiles": "C[C@]12CC[C@@H](O)C[C@@H]1CC[C@@H]1[C@@H]2CC[C@]2(C)[C@@H](O)CC[C@@H]12", "note": "(stereo in doubt) [androstane-3,17-diol]", "values": [{"measurement": "uterine contractility with oxytocin stimulation (AUC, amplitude)", "setting": "[1]; 1 μM compound, increasing doses of oxytocin", "value": "reduced; also recorded: inhibits uterine muscle contraction"}, {"measurement": "gestation period of healthy control mice", "setting": "[2]", "value": "increased gestation period beyond the typical date of delivery"}, {"measurement": "pups birthed from treated preterm model females", "setting": "[3]; intraperitoneal", "value": "Full-term live pups"}, {"measurement": "rank of gestation result among treatments", "setting": "[3]; intraperitoneal", "value": "most significant results"}, {"measurement": "gestation after LPS", "setting": "[3]", "value": "prolonged gestation in vivo"}, {"measurement": "condition of mom and pups at full-term", "setting": "[4]; 1.5 mg/mouse intraperitoneal every 12 hours", "value": "looked healthy"}, {"measurement": "fraction of mice that reached full-term", "setting": "[4]; 1.5 mg/mouse intraperitoneal every 12 hours, up to 5 doses", "value": "⅓"}, {"measurement": "LPS-induced preterm mice that reached full term", "setting": "[4]; 1.5 mg/mouse intraperitoneal every 24 hours, up to 3 days", "value": 33, "unit": "%"}, {"measurement": "ability to mitigate collagen retraction", "setting": "[5]", "value": "best results"}, {"measurement": "muscle contractility, myography tracing", "setting": "[6]; 1 μM", "value": "rapid inhibition of the muscle contraction"}, {"measurement": "suppression of uterine contractility (area under the curve normalized to baseline)", "setting": "[6]; D18 strips, 0.25 μM DHEA-S, 1 μM THDOC, estriol-16-glucuronide or androstane-3,17-diol", "value": "most significant inhibition effect"}]}
{"smiles": "C[C@]12CCC(=O)C[C@@H]1CC[C@@H]1[C@@H]2CC[C@]2(C)[C@@H](O)CC[C@@H]12", "note": "[5α-DHT, 5α-dihydrotestosterone]", "values": [{"measurement": "pups birthed from treated preterm model females", "setting": "[7]", "value": "Full-term live pups"}, {"measurement": "gestation after LPS", "setting": "[7]", "value": "prolonged gestation in vivo"}]}
{"smiles": "Cn1cnc2nc(N)[nH]c(=O)c21", "note": "[7-methylguanine]", "values": [{"measurement": "pups birthed from treated preterm model females", "setting": "[7]", "value": "Full-term live pups"}, {"measurement": "gestation after LPS", "setting": "[7]", "value": "prolonged gestation in vivo"}]}
{"smiles": "C[C@]12CC[C@H](OS(=O)(=O)O)CC1=CC[C@@H]1[C@@H]2CC[C@]2(C)C(=O)CC[C@@H]12", "note": "[DHEA-S, dehydroisoandrosterone sulfate]", "values": [{"measurement": "pups birthed from treated preterm model females", "setting": "[3]; intraperitoneal", "value": "Full-term live pups"}, {"measurement": "gestation after LPS", "setting": "[3]", "value": "prolonged gestation in vivo"}]}
{"smiles": "CC[C@H](C)[C@@H]1NC(=O)[C@H](Cc2ccc(O)cc2)NC(=O)[C@@H](N)CSSC[C@@H](C(=O)N2CCC[C@H]2C(=O)N[C@@H](CC(C)C)C(=O)NCC(N)=O)NC(=O)[C@H](CC(N)=O)NC(=O)[C@H](CCC(N)=O)NC1=O", "note": "[Oxytocin, oxytocin, reference compound]", "values": [{"measurement": "effect of oxytocin on uterine contractility", "setting": "[1]; 1 to 1000 nM oxytocin", "value": "dose-dependent increase in uterine contractility"}]}
{"smiles": "C[C@]12CC[C@@H](O)C[C@H]1CC[C@@H]1[C@@H]2CC[C@]2(C)[C@@H](C(=O)CO)CC[C@@H]12", "note": "[THDOC, tetrahydrodeoxycorticosterone]", "values": [{"measurement": "gestation after LPS", "setting": "[3]", "value": "prolonged gestation in vivo"}]}
{"smiles": "CC(=O)[C@H]1CC[C@H]2[C@@H]3CC=C4C[C@@H](OS(=O)(=O)O)CC[C@]4(C)[C@H]3CC[C@]12C", "note": "[pregnenolone sulfate]", "values": [{"measurement": "pups birthed from treated preterm model females", "setting": "[7]", "value": "Full-term live pups"}, {"measurement": "rank of gestation result among treatments", "setting": "[7]; 4 doses at 30 mg/kg", "value": "most significant results, matching the untreated control"}, {"measurement": "gestation after LPS", "setting": "[7]", "value": "prolonged gestation in vivo"}]}
{"smiles": "CC(=O)[C@H]1CC[C@H]2[C@@H]3CC=C4C[C@@H](O)CC[C@]4(C)[C@H]3CC[C@]12C", "note": "[pregnenolone]", "values": [{"measurement": "gestation after LPS", "setting": "[7]", "value": "prolonged gestation in vivo"}]}
{"smiles": "CC(=O)[C@H]1CC[C@H]2[C@@H]3CCC4=CC(=O)CC[C@]4(C)[C@H]3CC[C@]12C", "note": "[progesterone, reference compound]", "values": [{"measurement": "ability to mitigate collagen retraction", "setting": "[5]", "value": "no effect"}, {"measurement": "muscle contractility, myography tracing", "setting": "[6]; 1 μM", "value": "no effects"}, {"measurement": "muscle contractility, myography tracing", "setting": "[6]; 10 μM", "value": "first enhanced and then gradually suppressed in peak height"}]}
